System: BSC cells, SV40 CPE inhibition
Assay: antiviral efficacy against SV40, host toxicity – BSC cells, set 3, confirmation (AID 485276)
Details: measured here: BSC cell cytotoxicity

Compound Oc1ccc(Oc2ccc(O)cc2)cc1 has a TC50 of 9.92 µM.
CC(C)c1cc(C(C)(C)c2ccc(O)c(C(C)C)c2)ccc1O showed a TC50 of 24 µM.
Oc1ccc(C2(c3ccc(O)cc3)CC2)cc1 was tested, and the TC50 was 196 µM.
Compound CC(C)(c1ccc(O)cc1)c1ccc(Cl)cc1 has a TC50 of 71.2 µM.
Work on CC(C)(c1ccc(O)cc1)c1ccc(O)cc1 yielded a TC50 of 17 µM.
Oc1c(Cl)cc(Cl)cc1Sc1cc(Cl)cc(Cl)c1O gave a TC50 of 21.2 µM.
In the case of Oc1ccc(Cl)cc1Cc1cc(Cl)ccc1O, the TC50 is reported as 18 µM.

From PubChem BioAssay AID485276 (Southern Research Specialized Biocontainment Screening …, 2010)
